Patent US8952024B2, “Herbicidal pyrimidone derivatives” (E I du Pont de Nemours and Company, priority 2009, dated 2015)

How the values were obtained:
Assay in all cases: Test B pre-/postemergence plant response
Type in all cases: in vivo
[1] = tested on: Italian ryegrass (Lolium multiflorum); settings: for Plant response rating, Ryegrass, Italian: Postemergence, scale 0 to 100 (0 no effect, 100 complete control)
Procedure, shortened: (§1)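 Steps: sow seed in loam–sand soil and spray preemergence, or grow plants in peat-based medium to 1–4 leaves (2–18 cm) and spray postemergence; formulation is non-phytotoxic solvent plus surfactant; hold in greenhouse 13–15 days; score visually vs controls, 0 = no effect, 100 = complete control.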

[2] = tested on: Surinam grass (Brachiaria decumbens); settings: for Plant response rating, Surinam Grass: Postemergence, scale 0 to 100 (0 no effect, 100 complete control)
Procedure, shortened: as §1

[3] = tested on: blackgrass (Alopecurus myosuroides)
Procedure, shortened: as §1

corn (Zea mays) = tested on: corn (Zea mays)
Procedure, shortened: as §1

[4] = tested on: downy bromegrass (Bromus tectorum)
Procedure, shortened: as §1

[5] = tested on: goosegrass (Eleusine indica)
Procedure, shortened: as §1

[6] = tested on: johnsongrass (Sorghum halepense)
Procedure, shortened: as §1

kochia (Kochia scoparia) = tested on: kochia (Kochia scoparia)
Procedure, shortened: as §1

[7] = tested on: lambsquarters (Chenopodium album)
Procedure, shortened: as §1

[8] = tested on: large crabgrass (Digitaria sanguinalis)
Procedure, shortened: as §1

[9] = tested on: pigweed (Amaranthus retroflexus)
Procedure, shortened: as §1

[10] = tested on: ragweed (common ragweed, Ambrosia elatior); settings: for Plant response rating, Ragweed: Postemergence, scale 0 to 100 (0 no effect, 100 complete control)
Procedure, shortened: as §1

soybean (Glycine max) = settings: for Plant response rating, Soybean: Postemergence, scale 0 to 100 (0 no effect, 100 complete control)
Procedure, shortened: as §1

[11] = tested on: velvetleaf (Abutilon theophrasti); settings: for Plant response rating, Velvetleaf: Postemergence, scale 0 to 100 (0 no effect, 100 complete control)
Procedure, shortened: as §1

[12] = tested on: wheat (Triticum aestivum)
Procedure, shortened: as §1

wild oat (Avena fatua) = tested on: wild oat (Avena fatua)
Procedure, shortened: as §1

[13] = tested on: woolly cupgrass (Eriochloa villosa); settings: for Plant response rating, Cupgrass, Woolly: Postemergence, scale 0 to 100 (0 no effect, 100 complete control)
Procedure, shortened: as §1

[14] = tested on: yellow nutsedge (Cyperus esculentus); settings: for Plant response rating, Nutsedge, Yellow: Postemergence, scale 0 to 100 (0 no effect, 100 complete control)
Procedure, shortened: as §1

[15] = 62 g ai/ha, postemergence, 0 is no effect, 100 is complete control, 13 to 15 days
[16] = 31 g ai/ha, postemergence, scale 0 to 100, 0 is no effect, 100 is complete control
[17] = Postemergence, 125 g ai/ha, scale 0 to 100 (0 no effect, 100 complete control)
[18] = Postemergence, 250 g ai/ha, scale 0 to 100 (0 no effect, 100 complete control)

## O=C1CCCC(O)=C1C(=O)c1cnc(-c2cccs2)n(CC2CCCO2)c1=O (stereo not drawn) [Compound 109]
[1]; [15]
  Ryegrass, Italian plant response rating (0 to 100 scale): 0
[1]; 125 g ai/ha
  Plant response rating, Ryegrass, Italian: 5
[1]; 250 g ai/ha
  Plant response rating, Ryegrass, Italian: 40
[2]; [15]
  Surinam Grass plant response rating (0 to 100 scale): 65
[2]; 125 g ai/ha
  Plant response rating, Surinam Grass: 65
[2]; 250 g ai/ha
  Plant response rating, Surinam Grass: 80
[3]; [16]
  Plant response rating, Blackgrass: 0
[3]; [15]
  Blackgrass plant response rating (0 to 100 scale): 5
[3]; [17]
  Plant response rating, Blackgrass: 40
[3]; [18]
  Plant response rating, Blackgrass: 50
Corn (Zea mays); [16]
  Plant response rating, Corn: 0
Corn (Zea mays); [15]
  Corn plant response rating (0 to 100 scale): 15
Corn (Zea mays); [17]
  Plant response rating, Corn: 60
Corn (Zea mays); [18]
  Plant response rating, Corn: 60
[4]; [16]
  Plant response rating, Bromegrass, Downy: 0
[4]; [15]
  Bromegrass, Downy plant response rating (0 to 100 scale): 0
[4]; [17]
  Plant response rating, Bromegrass, Downy: 5
[4]; [18]
  Plant response rating, Bromegrass, Downy: 5
[5]; [16]
  Plant response rating, Goosegrass: 65
[5]; [15]
  Goosegrass plant response rating (0 to 100 scale): 75
[5]; [17]
  Plant response rating, Goosegrass: 80
[5]; [18]
  Plant response rating, Goosegrass: 85
[6]; [16]
  Plant response rating, Johnsongrass: 5
[6]; [15]
  Johnsongrass plant response rating (0 to 100 scale): 30
[6]; [17]
  Plant response rating, Johnsongrass: 50
[6]; [18]
  Plant response rating, Johnsongrass: 75
Kochia (Kochia scoparia); [16]
  Plant response rating, Kochia: 70
Kochia (Kochia scoparia); [15]
  Kochia plant response rating (0 to 100 scale): 75
Kochia (Kochia scoparia); [17]
  Plant response rating, Kochia: 85
Kochia (Kochia scoparia); [18]
  Plant response rating, Kochia: 98
[7]; [16]
  Plant response rating, Lambsquarters: 98
[7]; [15]
  Lambsquarters plant response rating (0 to 100 scale): 98
[7]; [17]
  Plant response rating, Lambsquarters: 100
[7]; [18]
  Plant response rating, Lambsquarters: 100
[8]; [16]
  Plant response rating, Crabgrass, Large: 65
[8]; [15]
  Crabgrass, Large plant response rating (0 to 100 scale): 75
[8]; [17]
  Plant response rating, Crabgrass, Large: 75
[8]; [18]
  Plant response rating, Crabgrass, Large: 85
[9]; [16]
  Plant response rating, Pigweed: 100
[9]; [15]
  Pigweed plant response rating (0 to 100 scale): 100
[9]; [17]
  Plant response rating, Pigweed: 100
[9]; [18]
  Plant response rating, Pigweed: 100
[10]; [15]
  Ragweed plant response rating (0 to 100 scale): 95
[10]; 125 g ai/ha
  Plant response rating, Ragweed: 95
[10]; 250 g ai/ha
  Plant response rating, Ragweed: 98
Soybean (Glycine max); [15]
  Soybean plant response rating (0 to 100 scale): 95
Soybean (Glycine max); 125 g ai/ha
  Plant response rating, Soybean: 98
Soybean (Glycine max); 250 g ai/ha
  Plant response rating, Soybean: 100
[11]; [15]
  Velvetleaf plant response rating (0 to 100 scale): 98
[11]; 125 g ai/ha
  Plant response rating, Velvetleaf: 100
[11]; 250 g ai/ha
  Plant response rating, Velvetleaf: 100
[12]; [15]
  Wheat plant response rating (0 to 100 scale): 5
[12]; [17]
  Plant response rating, Wheat: 5
Wild oat (Avena fatua); [16]
  Plant response rating, Oat, Wild: 0
Wild oat (Avena fatua); [15]
  Oat, Wild plant response rating (0 to 100 scale): 0
Wild oat (Avena fatua); [17]
  Plant response rating, Oat, Wild: 30
Wild oat (Avena fatua); [18]
  Plant response rating, Oat, Wild: 40
[13]; [15]
  Cupgrass, Woolly plant response rating (0 to 100 scale): 60
[13]; 125 g ai/ha
  Plant response rating, Cupgrass, Woolly: 60
[13]; 250 g ai/ha
  Plant response rating, Cupgrass, Woolly: 75
[14]; [15]
  Nutsedge, Yellow plant response rating (0 to 100 scale): 65
[14]; 125 g ai/ha
  Plant response rating, Nutsedge, Yellow: 75
[14]; 250 g ai/ha
  Plant response rating, Nutsedge, Yellow: 80
